Reference: patent publication US9999622B2, “Pyrazolothiazole compound and medicine comprising same” (NIPPON SHINYAKU CO., LTD., priority 2014, dated 2018)
Counter-ions that a name gives are not always drawn.

What was measured:
Format in all cases: biochemical
JAK3 = molecular target: T1, JAK3 (Homo sapiens, UniProt P52333); assay: JAK tyrosine kinase inhibitory activity in the presence of 1 mM ATP (ELISA), JAK3
T1 construct: purchased Carna Biosciences, Inc
T1 sequence (P52333 1-1124): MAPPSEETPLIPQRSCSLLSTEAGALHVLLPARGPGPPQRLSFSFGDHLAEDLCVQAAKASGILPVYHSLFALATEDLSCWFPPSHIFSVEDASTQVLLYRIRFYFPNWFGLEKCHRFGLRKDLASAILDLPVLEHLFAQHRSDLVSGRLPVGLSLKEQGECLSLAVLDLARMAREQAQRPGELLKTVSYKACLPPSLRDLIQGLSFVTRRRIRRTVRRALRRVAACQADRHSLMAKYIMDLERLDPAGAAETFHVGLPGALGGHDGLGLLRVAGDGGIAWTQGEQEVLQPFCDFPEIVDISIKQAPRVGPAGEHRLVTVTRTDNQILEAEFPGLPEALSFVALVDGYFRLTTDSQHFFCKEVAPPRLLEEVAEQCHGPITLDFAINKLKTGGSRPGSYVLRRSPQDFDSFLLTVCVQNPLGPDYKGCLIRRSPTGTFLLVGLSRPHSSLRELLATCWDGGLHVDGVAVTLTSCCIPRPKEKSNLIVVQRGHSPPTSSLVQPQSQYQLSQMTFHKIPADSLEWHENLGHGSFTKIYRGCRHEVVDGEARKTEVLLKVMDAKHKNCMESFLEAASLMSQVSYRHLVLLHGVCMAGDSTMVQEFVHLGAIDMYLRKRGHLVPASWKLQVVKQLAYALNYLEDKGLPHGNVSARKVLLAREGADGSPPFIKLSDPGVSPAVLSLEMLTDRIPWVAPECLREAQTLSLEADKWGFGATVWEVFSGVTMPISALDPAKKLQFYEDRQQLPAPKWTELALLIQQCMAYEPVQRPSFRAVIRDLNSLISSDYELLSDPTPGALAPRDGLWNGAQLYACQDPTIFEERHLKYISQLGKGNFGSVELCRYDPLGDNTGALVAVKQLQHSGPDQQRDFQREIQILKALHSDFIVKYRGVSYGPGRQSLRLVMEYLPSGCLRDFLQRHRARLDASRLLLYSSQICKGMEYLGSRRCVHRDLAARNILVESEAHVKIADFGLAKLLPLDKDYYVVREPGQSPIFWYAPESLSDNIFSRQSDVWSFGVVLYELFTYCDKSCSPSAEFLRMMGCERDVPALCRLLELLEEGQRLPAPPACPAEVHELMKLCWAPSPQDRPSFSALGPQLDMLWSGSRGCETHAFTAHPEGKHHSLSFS
Description: (§1) 1. Preparation of Test Compound
(§2) The test compound was dissolved in dimethyl sulfoxide (DMSO) to 10 mM and further diluted with DMSO to the concentrations of 1000, 100, 10, 1, 0.1 and 0.01 μM, respectively. For JAK1, these solutions of the test compound at the six concentrations 10 mM, 1000 μM, 100 μM, 10 μM, 1 μM and 0.1 μM were used. For JAK2 and JAK3, these solutions of the test compound at the six concentrations 1000 μM, 100 μM, 10 μM, 1 μM, 0.1 μM and 0.01 μM were used. The test compound solutions were diluted further to 20-fold with an assay buffer to obtain a sample solution. 15 mM Tris-HCl (pH7.5), 0.01 (v/v) % Tween-20 and 1 mM dithiothreitol were used as an assay buffer. DMSO was diluted to 20-fold with the assay buffer and was used as a negative control.
(§3) 2. JAK Tyrosine Kinase Inhibitory Activity in the Presence of 1 mM Atp
(§4) The activity was determined by ELISA method. Each of the sample solutions was added to a streptavidine coated 96-well plate (DELFIA Strip Plate 8×12 well, PerkinElmer) at 10 μL/well (n=2). […] Finally, JAK tyrosine kinase (Carna Biosciences, Inc.), which was previously diluted with the assay buffer to 7.5 nM for JAK1 and 0.75 nM for JAK2 and JAK3, was added to the plate at 20 μL/well, and the plate was incubated at 30° C. for 1 h. The plate was washed four times with buffer (50 mM Tris-HCl (pH 7.5), 150 mM NaCl, 0.02 (v/v) % Tween-20). A blocking buffer (0.1% Bovine Serum Albumin, 50 mM Tris-HCl (pH 7.5), 150 mM NaCl, 0.02 (v/v) % Tween-20) was added to the plate at 150 μL/well and the plate was blocked at 30° C. for 1 h. The blocking buffer was removed, and a horse radish peroxidase-labeled anti-phosphorylated tyrosine antibody (BD Biosciences, Inc.) (diluted to 10000-fold with the blocking buffer) was added to the plate at 100 μL/well, and the plate was incubated at 30° C. for 30 min. The plate was washed with the washing buffer four times, and 3,3′,5,5′-tetramethylbenizidine solution (Nacalai Tesque) was added to the plate at 100 μL/well to develop the color for 10 minutes. To the plate was added 0.1 M sulfuric acid at 100 μL/well to stop the reaction. The absorbance at 450 nm was measured using a microplate reader (BIO-RAD).
(§5) 3. Analysis of the Results

JAK2 = molecular target: T2, JAK2 (Homo sapiens, UniProt O60674); assay: JAK tyrosine kinase inhibitory activity in the presence of 1 mM ATP (ELISA), JAK2
T2 construct: purchased Carna Biosciences, Inc
T2 sequence (O60674 whole entry): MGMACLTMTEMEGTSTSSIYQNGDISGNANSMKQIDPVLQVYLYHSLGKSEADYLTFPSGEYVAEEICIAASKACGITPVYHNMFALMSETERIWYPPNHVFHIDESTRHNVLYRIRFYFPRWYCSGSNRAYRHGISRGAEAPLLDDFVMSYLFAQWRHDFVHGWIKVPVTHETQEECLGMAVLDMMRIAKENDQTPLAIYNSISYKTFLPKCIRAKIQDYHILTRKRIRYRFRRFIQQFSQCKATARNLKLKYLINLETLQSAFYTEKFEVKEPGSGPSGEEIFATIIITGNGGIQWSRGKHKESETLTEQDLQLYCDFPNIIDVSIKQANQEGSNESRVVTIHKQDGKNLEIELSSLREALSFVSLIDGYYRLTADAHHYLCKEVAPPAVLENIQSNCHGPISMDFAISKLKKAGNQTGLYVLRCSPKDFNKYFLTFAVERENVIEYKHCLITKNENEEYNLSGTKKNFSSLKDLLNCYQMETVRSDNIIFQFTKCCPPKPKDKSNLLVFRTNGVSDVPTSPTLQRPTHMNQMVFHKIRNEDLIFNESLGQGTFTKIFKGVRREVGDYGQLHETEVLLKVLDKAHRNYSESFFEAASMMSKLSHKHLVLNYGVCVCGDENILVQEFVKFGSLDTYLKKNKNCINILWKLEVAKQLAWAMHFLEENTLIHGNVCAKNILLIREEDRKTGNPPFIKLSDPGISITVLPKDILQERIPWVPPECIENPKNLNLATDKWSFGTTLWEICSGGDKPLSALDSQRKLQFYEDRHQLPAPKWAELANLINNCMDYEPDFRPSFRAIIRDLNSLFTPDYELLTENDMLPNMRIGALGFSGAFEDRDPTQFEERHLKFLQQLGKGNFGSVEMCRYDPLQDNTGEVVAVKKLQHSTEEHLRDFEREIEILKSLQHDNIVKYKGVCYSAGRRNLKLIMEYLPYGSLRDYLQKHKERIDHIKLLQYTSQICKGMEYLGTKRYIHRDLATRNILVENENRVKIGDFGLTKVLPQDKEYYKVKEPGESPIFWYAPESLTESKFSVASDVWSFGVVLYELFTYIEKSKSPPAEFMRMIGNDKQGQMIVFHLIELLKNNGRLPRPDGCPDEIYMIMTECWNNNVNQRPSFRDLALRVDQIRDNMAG
Description: as §1, §2, §3, §4, §5

JAK1 = molecular target: T3, JAK1 (Homo sapiens, UniProt P23458); assay: JAK tyrosine kinase inhibitory activity in the presence of 1 mM ATP (ELISA), JAK1
T3 construct: purchased Carna Biosciences, Inc
T3 sequence (P23458 whole entry): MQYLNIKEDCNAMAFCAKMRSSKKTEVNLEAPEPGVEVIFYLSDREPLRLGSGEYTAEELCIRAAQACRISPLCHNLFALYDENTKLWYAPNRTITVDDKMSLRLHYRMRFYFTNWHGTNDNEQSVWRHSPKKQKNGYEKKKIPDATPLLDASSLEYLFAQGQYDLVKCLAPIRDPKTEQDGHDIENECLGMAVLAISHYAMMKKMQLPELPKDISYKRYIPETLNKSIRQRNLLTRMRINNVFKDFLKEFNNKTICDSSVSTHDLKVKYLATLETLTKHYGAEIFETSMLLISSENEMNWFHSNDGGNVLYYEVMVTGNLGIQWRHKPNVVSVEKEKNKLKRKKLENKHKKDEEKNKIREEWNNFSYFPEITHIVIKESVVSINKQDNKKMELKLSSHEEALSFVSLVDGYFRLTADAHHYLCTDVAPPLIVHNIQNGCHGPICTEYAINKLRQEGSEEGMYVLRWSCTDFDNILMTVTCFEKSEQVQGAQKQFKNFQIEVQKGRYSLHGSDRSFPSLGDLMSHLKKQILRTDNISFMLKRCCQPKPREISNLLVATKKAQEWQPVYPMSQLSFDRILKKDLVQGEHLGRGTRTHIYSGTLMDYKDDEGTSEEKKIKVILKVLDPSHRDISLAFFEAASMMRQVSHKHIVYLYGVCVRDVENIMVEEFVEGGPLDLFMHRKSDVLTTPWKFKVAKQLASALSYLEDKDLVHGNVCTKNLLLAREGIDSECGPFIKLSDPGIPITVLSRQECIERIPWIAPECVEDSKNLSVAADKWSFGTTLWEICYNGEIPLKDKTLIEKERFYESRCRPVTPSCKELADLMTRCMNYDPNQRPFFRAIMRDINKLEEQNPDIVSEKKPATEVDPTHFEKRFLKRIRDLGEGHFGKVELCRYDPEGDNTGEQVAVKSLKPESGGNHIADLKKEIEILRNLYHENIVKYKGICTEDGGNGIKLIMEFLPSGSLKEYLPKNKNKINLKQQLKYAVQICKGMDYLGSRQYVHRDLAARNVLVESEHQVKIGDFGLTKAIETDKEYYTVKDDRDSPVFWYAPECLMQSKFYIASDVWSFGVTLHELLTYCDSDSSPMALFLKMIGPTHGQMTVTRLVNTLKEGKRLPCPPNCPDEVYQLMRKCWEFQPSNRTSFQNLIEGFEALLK
Description: as §1, §2, §3, §4, §5

Compound: COC(=O)NC1CCN(C(=O)c2nc(-c3cnn4ccsc34)nc(N[C@@H](C)C3CC3)c2OC)CC1 [Example 145, Methyl (1-{[6-{[(1S)-1-cyclopropylethyl]amino} 5 methoxy-2-(pyrazolo[5,1-b][1,3]thiazol-7-yl)pyrimidin-4-yl]carbonyl}piperidin-4-yl)carbamate]
- IC50 (JAK3): 1400 nM
- IC50 (JAK2): 1200 nM
- IC50 (JAK1): 270 nM

Compound: COC(=O)NC1CCN(C(=O)c2cc(N[C@H]3CC[C@H](O)CC3)nc(-c3cnn4ccsc34)n2)CC1 [Example 178, Methyl (1-6-[(trans-4-hydroxycyclohexyl)amino]-2-(pyrazolo[5,1-b][1,3]thiazol-7-yl)pyrimidine-4-carbonylpiperidin-4-yl)carbamate]
- IC50 (JAK3): 9500 nM
- IC50 (JAK2): > 10000 nM
- IC50 (JAK1): 510 nM

Compound: CCOC(=O)NC1CCN(C(=O)c2cc(NC(C)(C)C)nc(-c3cnn4ccsc34)n2)CC1 [Example 71, Ethyl (1-{[6-(tert-butylamino)-2-(pyrazolo[5,1-b][1,3]thiazol-7-yl)pyrimidin-4-yl]carbonyl}piperidin-4-yl)carbamate]
- IC50 (JAK3): 4000 nM
- IC50 (JAK2): 3700 nM
- IC50 (JAK1): 200 nM

Compound: CC(C)(C)Nc1cc(C(=O)N2CCC(NC(=O)OC3CC3)CC2)nc(-c2cnn3ccsc23)n1 [Example 135, Cyclopropyl (1-{[6-(tert-butylamino)-2-(pyrazolo[5,1-b][1,3]thiazol-7-yl)pyrimidin-4-yl]carbonyl}piperidin-4-yl)carbamate]
- IC50 (JAK3): 3700 nM
- IC50 (JAK2): 2400 nM
- IC50 (JAK1): 68 nM

Compound: CCC(=O)NC1CCN(C(=O)c2cc(N[C@@H]3CCN(C(=O)CC#N)C3)nc(-c3cnn4ccsc34)n2)CC1 [Example 202, N-1-[6-[(3R)-1-(cyanoacetyl)pyrrolidin-3-yl]amino-2-(pyrazolo[5,1-b][1,3]thiazol-7-yl)pyrimidine-4-carbonyl]piperidin-4-ylpropanamide]
- IC50 (JAK3): > 10000 nM
- IC50 (JAK2): > 10000 nM
- IC50 (JAK1): 300 nM

Compound: O=C(NC1CCN(C(=O)c2cc(N[C@H]3CC[C@H](O)CC3)nc(-c3cnn4ccsc34)n2)CC1)C1CC1 [Example 168, N-(1-6-[(trans-4-hydroxycyclohexyl)amino]-2-(pyrazolo[5,1-b][1,3]thiazol-7-yl)pyrimidine-4-carbonylpiperidin-4-yl)cyclopropanecarboxamide]
- IC50 (JAK3): 3200 nM
- IC50 (JAK2): > 10000 nM
- IC50 (JAK1): 1200 nM

Compound: COC(=O)NC1CCN(C(=O)c2cc(N[C@@H]3CCN(C(=O)CC#N)C3)nc(-c3cnn4ccsc34)n2)CC1 [Example 201, Methyl 1-[6-[(3R)-1-(cyanoacetyl)pyrrolidin-3-yl]amino-2-(pyrazolo[5,1-b][1,3]thiazol-7-yl)pyrimidine-4-carbonyl]piperidin-4-ylcarbamate]
- IC50 (JAK3): > 10000 nM
- IC50 (JAK2): > 10000 nM
- IC50 (JAK1): 120 nM

Compound: C[C@H](Nc1cc(C(=O)N2CCC(NC(=O)c3cccs3)CC2)nc(-c2cnn3ccsc23)n1)C1CC1 [Example 32, N-(1-{[6-{[(1S)-1-Cyclopropylethyl]amino}-2-(pyrazolo[5,1-b][1,3]thiazol-7-yl)pyrimidin-4-yl]carbonyl}piperidin-4-yl)thiophene-2-carboxamide]
- IC50 (JAK3): > 10000 nM
- IC50 (JAK2): 1800 nM
- IC50 (JAK1): 380 nM

Compound: COC(=O)NC1CCN(C(=O)c2cc(N[C@H]3CC[C@@H](O)CC3)nc(-c3cnn4ccsc34)n2)CC1 [Example 177, Methyl (1-6-[(cis-4-hydroxycyclohexyl)amino]-2-(pyrazolo[5,1-b][1,3]thiazol-7-yl)pyrimidine-4-carbonylpiperidin-4-yl)carbamate]
- IC50 (JAK3): > 10000 nM
- IC50 (JAK2): > 10000 nM
- IC50 (JAK1): 300 nM

Compound: Cc1c(N[C@@H](C)C2CC2)nc(-c2cnn3ccsc23)nc1C(=O)N1CCC(NC(=O)C(F)F)CC1 [Example 18, N-(1-{[6-{[(1S)-1-Cyclopropylethyl]amino}-5-methyl-2-(pyrazolo[5,1-b][1,3]thiazol-7-yl)pyrimidin-4-yl]carbonyl}piperidin-4-yl)-2,2-difluoroacetamide]
- IC50 (JAK3): 1700 nM
- IC50 (JAK2): 2300 nM
- IC50 (JAK1): 310 nM

Compound: C[C@@H](Nc1cc(C(=O)N2CCC(NC(=O)OC(C)(C)C)CC2)nc(-c2cnn3ccsc23)n1)C(C)(C)C [Example 100, tert-Butyl (1-{[6-{[(2R)-3,3-dimethylbutan-2-yl]amino}-2-(pyrazolo[5,1-b][1,3]thiazol-7-yl)pyrimidin-4-yl]carbonyl}piperidin-4-yl)carbamate]
- IC50 (JAK3): 3400 nM
- IC50 (JAK2): 3000 nM
- IC50 (JAK1): 140 nM

Compound: CCC(CC)Nc1cc(C(=O)N2CCC(NC(=O)COC)CC2)nc(-c2cnn3ccsc23)n1 [Example 106, 2-Methoxy-N-(1-{[6-(pentan-3-ylamino)-2-(pyrazolo[5,1-b][1,3]thiazol-7-yl)pyrimidin-4-yl]carbonyl}piperidin-4-yl)acetamide]
- IC50 (JAK3): 2800 nM
- IC50 (JAK2): 1300 nM
- IC50 (JAK1): 600 nM

Compound: CCC(CC)COc1cc(C(=O)N2CCC(NC(=O)C3CC3)CC2)nc(-c2cnn3ccsc23)n1 [Example 107, N-(1-{[6-(2-Ethylbutoxy)-2-(pyrazolo[5,1-b][1,3]thiazol-7-yl)pyrimidin-4-yl]carbonyl}piperidin-4-yl)cyclopropanecarboxamide]
- IC50 (JAK3): 1600 nM
- IC50 (JAK2): 3500 nM
- IC50 (JAK1): 200 nM

Compound: C[C@@H](Nc1cc(C(=O)N2CCC(NC(=O)C3CC3)CC2)nc(-c2cnn3ccsc23)n1)C1CCCCC1 [Example 169, N-1-[6-[(1R)-1-cyclohexylethyl]amino-2-(pyrazolo[5,1-b][1,3]thiazol-7-yl)pyrimidine-4-carbonyl]piperidin-4-ylcyclopropanecarboxamide]
- IC50 (JAK3): 2100 nM
- IC50 (JAK2): 6400 nM
- IC50 (JAK1): 160 nM

Compound: CCCC(=O)N1CC[C@@H](Nc2cc(C(=O)N3CCC(NC(=O)OC)CC3)nc(-c3cnn4ccsc34)n2)C1 [Example 207, Methyl 1-[6-[(3R)-1-butanoylpyrrolidin-3-yl]amino-2-(pyrazolo[5,1-b][1,3]thiazol-7-yl)pyrimidine-4-carbonyl]piperidin-4-ylcarbamate]
- IC50 (JAK3): > 10000 nM
- IC50 (JAK2): > 10000 nM
- IC50 (JAK1): 410 nM

Compound: CC(C)(CO)Nc1cc(C(=O)N2CCC(NC(=O)C3CC3)CC2)nc(-c2cnn3ccsc23)n1 [Example 48, N-[1-({6-[(1-Hydroxy-2-methylpropan-2-yl)amino]-2-(pyrazolo[5,1-b][1,3]thiazol-7-yl)pyrimidin-4-yl}carbonyl)piperidin-4-yl]cyclopropanecarboxamide]
- IC50 (JAK3): > 10000 nM
- IC50 (JAK2): > 10000 nM
- IC50 (JAK1): 150 nM

Compound: COC(=O)NC1CCN(C(=O)c2cc(N(C)C(C)(C)C)nc(-c3cnn4ccsc34)n2)CC1 [Example 132, Methyl [1-({6-[tert-butyl(methyl)amino]-2-(pyrazolo[5,1-b][1,3]thiazol-7-yl)pyrimidin-4-yl}carbonyl)piperidin-4-yl]carbamate hydrochloride]
- IC50 (JAK3): > 10000 nM
- IC50 (JAK2): > 10000 nM
- IC50 (JAK1): 790 nM
